Key:
[1] = test system: Caco-2; experiment: drug sensitivity score (DSS) for viability; higher = more toxic; extreme values may be limits of the assay; settings: 72 h
[2] = test system: HepG2; experiment: as above; settings: 72 h
[3] = test system: Vero E6; experiment: as above; settings: 72 h
[4] = test system: U2OS; experiment: as above; settings: 72 h
[5] = test system: Calu-3; experiment: as above; settings: 72 h
[6] = test system: A549-ACE2; experiment: drug-induced phospholipidosis relative to tamoxifen; higher = more phospholipidosis
[7] = test system: HepG2; experiment: relative viability EC50 (midpoint between 100% and the lowest measured viability); higher = less toxic; settings: 72 h
[8] = test system: Vero E6; experiment: as above; settings: 72 h
[9] = test system: U2OS; experiment: as above; settings: 72 h
[10] = test system: Calu-3; experiment: as above; settings: 72 h
[11] = test system: A549-ACE2 infected with SARS-CoV-2; experiment: morphology score (similarity to uninfected cells); higher = more like uninfected cells; settings: 24 h
[12] = test system: A549-ACE2 infected with SARS-CoV-2; experiment: SARS-CoV-2 infection rate relative to DMSO; higher = more infection; settings: 24 h
[13] = test system: A549-ACE2 infected with SARS-CoV-2; experiment: cell count relative to DMSO; higher = less toxic; settings: 24 h
[14] = test system: Caco-2; experiment: cell viability relative to DMSO; higher = less toxic; settings: 72 h
[15] = test system: HepG2; experiment: as above; settings: 72 h
[16] = test system: Vero E6; experiment: as above; settings: 72 h
[17] = test system: U2OS; experiment: as above; settings: 72 h
[18] = test system: Calu-3; experiment: as above; settings: 72 h
[19] = test system: Caco-2; experiment: relative viability EC50 (midpoint between 100% and the lowest measured viability); higher = less toxic; settings: 72 h

CCC(CC)COC(=O)[C@H](C)N[P@](=O)(OC[C@H]1O[C@@](C#N)(c2ccc3c(N)ncnn23)[C@H](O)[C@@H]1O)Oc1ccccc1 [Remdesivir]
Settings | drug sensitivity score | relative viability EC50 [µM]
[1] | 1.2 | –
[2] | 7.5 | –
[3] | 0 | –
[4] | 3.7 | –
[5] | 0.4 | –
[7] | – | 1.09
[8] | – | > 10
[9] | – | 2.62
[10] | – | > 10

drug-induced phospholipidosis [%], [6]
Settings | 0.3 µM | 0.833333 µM | 3.33333 µM | 6.66667 µM | 10 µM | 30 µM
24 h | 1.03 | -4.55 | 5.63 | 18 | 30 | 47.1
48 h | 4.23 | -7.54 | 0.11 | 4.58 | 10.5 | –
72 h | 4.52 | -8.77 | -4.57 | – | – | –

Settings | SARS-CoV-2 infection rate [%] | cell count [%] | cell viability [%] | morphology score
[11], 0.008 µM | – | – | – | 0.17
[11], 0.033 µM | – | – | – | 0.61
[11], 0.1 µM | – | – | – | 0.82
[11], 0.3 µM | – | – | – | 0.95
[11], 1 µM | – | – | – | 0.96
[11], 3 µM | – | – | – | 0.97
[11], 10 µM | – | – | – | 0.93
[11], 30 µM | – | – | – | 0.93
[12], 0.008 µM | 95 | – | – | –
[12], 0.033 µM | 83 | – | – | –
[12], 0.1 µM | 18 | – | – | –
[12], 0.3 µM | 11 | – | – | –
[12], 1 µM | 16 | – | – | –
[12], 3 µM | 9 | – | – | –
[12], 10 µM | 2 | – | – | –
[12], 30 µM | 2 | – | – | –
[13], 0.008 µM | – | 104 | – | –
[13], 0.033 µM | – | 114 | – | –
[13], 0.1 µM | – | 120 | – | –
[13], 0.3 µM | – | 126 | – | –
[13], 1 µM | – | 124 | – | –
[13], 3 µM | – | 116 | – | –
[13], 10 µM | – | 111 | – | –
[13], 30 µM | – | 105 | – | –
[14], 1 nM | – | – | 103 | –
[14], 10 nM | – | – | 101 | –
[14], 100 nM | – | – | 102 | –
[14], 1000 nM | – | – | 102 | –
[14], 10000 nM | – | – | 69.3 | –
[15], 1 nM | – | – | 101 | –
[15], 10 nM | – | – | 95.5 | –
[15], 100 nM | – | – | 105 | –
[15], 1000 nM | – | – | 70.2 | –
[15], 10000 nM | – | – | 33.7 | –
[16], 1 nM | – | – | 97.2 | –
[16], 10 nM | – | – | 97.6 | –
[16], 100 nM | – | – | 99.7 | –
[16], 1000 nM | – | – | 99.3 | –
[16], 10000 nM | – | – | 109 | –
[17], 1 nM | – | – | 98 | –
[17], 10 nM | – | – | 100 | –
[17], 100 nM | – | – | 101 | –
[17], 1000 nM | – | – | 96.1 | –
[17], 10000 nM | – | – | 42.6 | –
[18], 1 nM | – | – | 90.6 | –
[18], 10 nM | – | – | 103 | –
[18], 100 nM | – | – | 88.7 | –
[18], 1000 nM | – | – | 97 | –
[18], 10000 nM | – | – | 81.1 | –

Cc1nc(Nc2ccc(F)cc2)nc(N2CCc3ccccc3C2C)c1C (centres undefined) [revaprazan]
Settings | drug sensitivity score | relative viability EC50 [µM]
[1] | 1.6 | –
[2] | 1.5 | –
[3] | 0 | –
[4] | 0.8 | –
[5] | 0 | –
[8] | – | > 10
[9] | – | > 10
[10] | – | > 10

drug-induced phospholipidosis [%], [6]
Settings | 0.3 µM | 0.833333 µM | 3.33333 µM | 6.66667 µM | 10 µM | 30 µM
24 h | 0.84 | 3.77 | 8.66 | 7.71 | 18.8 | 34.5
48 h | 2.14 | 1.27 | 2.71 | 2.07 | 8.48 | 17.2
72 h | 2.77 | -0.285 | 3.45 | 3.85 | 13.8 | 30.9

Settings | SARS-CoV-2 infection rate, [12] [%] | cell count, [13] [%] | cell viability, [14] [%] | cell viability, [15] [%] | cell viability, [16] [%] | cell viability, [17] [%] | cell viability, [18] [%] | morphology score, [11]
1 nM | – | – | 98.3 | 98.2 | 90.2 | 101 | 97.5 | –
10 nM | – | – | 96.7 | 106 | 106 | 100 | 102 | –
100 nM | – | – | 104 | 96.3 | 92.7 | 102 | 106 | –
0.3 µM | 91 | 105 | – | – | – | – | – | 0.16
1000 nM | – | – | 97.6 | 110 | 98.1 | 97.1 | 92 | –
3 µM | 61 | 110 | – | – | – | – | – | 0.59
10 µM | 33 | 115 | – | – | – | – | – | 0.78
10000 nM | – | – | 71.6 | 60.4 | 95.8 | 81.5 | 99.8 | –
30 µM | 19 | 99 | – | – | – | – | – | 0.77

C=C[C@@]1(C)CC(=O)[C@]2(O)[C@@]3(C)[C@@H](O)CCC(C)(C)[C@@H]3[C@H](OC(=O)CCN(C)C)[C@H](OC(C)=O)[C@@]2(C)O1 [colforsin-daproate]
Settings | drug sensitivity score | relative viability EC50 [µM]
[1] | 0.1 | –
[2] | 0 | –
[3] | 1.3 | –
[4] | 0 | –
[5] | 0 | –
[7] | – | > 10
[8] | – | > 10
[9] | – | > 10
[10] | – | > 10
[19] | – | > 10

drug-induced phospholipidosis [%], [6]
Settings | 0.3 µM | 0.833333 µM | 3.33333 µM | 6.66667 µM | 10 µM | 30 µM
24 h | -0.11 | -0.39 | -2.43 | 1 | 1.72 | 23.6
48 h | 0.82 | -1.25 | -1.96 | 0.45 | 2.53 | 34.6
72 h | 2.97 | -1.9 | -2.38 | -1.51 | 0.457 | –

Settings | SARS-CoV-2 infection rate, [12] [%] | cell count, [13] [%] | cell viability, [14] [%] | cell viability, [15] [%] | cell viability, [16] [%] | cell viability, [17] [%] | cell viability, [18] [%] | morphology score, [11]
1 nM | – | – | 101 | 93.9 | 98 | 105 | 103 | –
10 nM | – | – | 98.9 | 100 | 93.9 | 103 | 95.5 | –
0.1 µM | 88 | 99 | – | – | – | – | – | 0.33
100 nM | – | – | 109 | 94 | 96.5 | 102 | 99.2 | –
0.3 µM | 98 | 105 | – | – | – | – | – | 0.05
1 µM | 106 | 105 | – | – | – | – | – | -0.06
1000 nM | – | – | 94 | 100 | 90.5 | 101 | 106 | –
3 µM | 108 | 104 | – | – | – | – | – | -0.03
10000 nM | – | – | 89.1 | 95.3 | 77 | 97.3 | 98.9 | –

C[C@H]1[C@H](NC(=O)/C(=N\OC(C)(C)C(=O)O)c2csc(N)n2)C(=O)N1S(=O)(=O)O [aztreonam]
Settings | drug sensitivity score | relative viability EC50 [µM]
[1] | 0 | –
[2] | 0 | –
[3] | 0 | –
[4] | 0 | –
[5] | 0 | –
[7] | – | > 10
[8] | – | > 10
[9] | – | > 10
[10] | – | > 10
[19] | – | > 10

drug-induced phospholipidosis [%], [6]
Settings | 0.3 µM | 0.833333 µM | 3.33333 µM | 6.66667 µM | 10 µM | 30 µM
24 h | 0.05 | -0.48 | -0.4 | 1.8 | 0.46 | 0.6
48 h | 4.27 | 0.47 | -0.36 | -0.48 | 2.78 | 5.88
72 h | 2.06 | -3.37 | -0.186 | -0.381 | 3.05 | 4.25

Settings | SARS-CoV-2 infection rate, [12] [%] | cell count, [13] [%] | cell viability, [14] [%] | cell viability, [15] [%] | cell viability, [16] [%] | cell viability, [17] [%] | cell viability, [18] [%] | morphology score, [11]
1 nM | – | – | 96.9 | 93 | 93 | 99.3 | 103 | –
10 nM | – | – | 91.7 | 108 | 95.2 | 93.9 | 99.8 | –
100 nM | – | – | 94.5 | 96.3 | 93.3 | 98.4 | 94.6 | –
0.3 µM | 105 | 102 | – | – | – | – | – | 0.12
1000 nM | – | – | 96.2 | 101 | 96.1 | 97.6 | 95.6 | –
3 µM | 109 | 97 | – | – | – | – | – | -0.22
10 µM | 98 | 99 | – | – | – | – | – | 0.07
10000 nM | – | – | 104 | 104 | 102 | 92.5 | 103 | –
30 µM | 93 | 107 | – | – | – | – | – | 0.28

Source: the supplement of paper PMC13380429
